Measured values published in US12673918B2, “Small molecule RPN13 inhibitors with antitumor properties” (The Johns Hopkins University, priority 2019, dated 2026).
pIC50: −log10 of the molar value.

Key:
HeLa cells = experiment: XTT cytotoxicity assay, HeLa; format: cell-based, human; conditions: Homo sapiens, HeLa, read-out: IC50 HeLa
Text: (§1) The impact of substituents of the aromatic ring on the potency of molecules was also examined. The presence of either an electron withdrawing group (EWG) or an electron donating group (EDG) influences the reactivity of a Michael acceptor towards the target protein but can also impact specificity/selectivity.

HT3 = experiment: MTT cytotoxicity assay, HT3; format: cell-based; conditions: Homo sapiens, HT-3, Table 3, 48 hr, Cervical (HPV −ve)
Protocol: (§3) The cytotoxic efficacy of selected compounds was assessed against multiple myeloma (MM) cell lines, as this is a validated clinical target for the licensed proteasome inhibitors.
(§4) Cell lines and cytotoxicity assays: All cell lines were obtained from the American Type Culture Collection (ATCC) and cultured in the specified medium supplemented with 10% fetal bovine serum, 100 IU/mL penicillin, and 100 μg/mL streptomycin at 37° C. in a humidified 5% CO2/95% air incubator. […] To assess drug cytotoxicity, cells were seeded at 2,500 cells/well (10,000 cells/well for MM lines) in 100 μL medium in 96-well plate and after 24 treated with compounds for 72 h, incubated according to the manufacturer's protocol with the Thiazolyl Blue Tetrazolium Bromide (Sigma, M2128) and A570 measured using a Benchmark Plus microplate spectrophotometer (BIO-RAD). IC50 data was analyzed by Graphpad Prism software. In the chirality studies the cells were treated with compounds for 48 h, and the cells were incubated and measured via the preceeding protocols.

C33A = experiment: MTT cytotoxicity assay, C33A; format: cell-based; conditions: Homo sapiens, C-33-A, Table 3, 48 hr, Cervical (HPV −ve)
Protocol: as §3, §4

JHU11 = experiment: MTT cytotoxicity assay, JHU11; format: cell-based; conditions: Table 3, 48 hr, Head & Neck (HPV −ve)
Protocol: as §3, §4

[1] = Initial toxicity testing in female Balb/c mice; format: in vivo
Protocol: Initial toxicity testing was performed in female Balb/c mice with RA375. Groups of mice (n=3) were injected intra peritoneally (i.p.) with a single dose of RA375 (5, 10, 20, 40, 60, 100 mg/Kg in 25% β-hydroxypropyl cyclodextrin) and endpoints evaluated included clinical observation and body weight for one week.

[2] = test system: proteasome (4UbFL reporter); experiment: 4UbFL proteasome reporter, transfected 293T cells; format: cell-based; conditions: 4 hours
Text: FIG. 9A illustrates 293T cells in 96 well plates transiently transected with the 4UbFL plasmid and 48 hr later treated with the indicated doses of each compound for 4 hr. Cells were lysed and luciferase activity assessed using a luminometer.
To monitor proteasome activity in living cells, a construct was used expressing a fusion protein comprising four tandem repeats of ubiquitin fused in frame with firefly luciferase (4UbFL) (41) to cause this otherwise stable reporter protein to undergo rapid proteolytic degradation via the proteasome. To assess their capacity to inhibit cellular proteasome function, 293T cells were transiently transfected with the 4UbFL construct and then […] treated with compounds for 4 hours prior to assay of luciferase activity. Like bortezomib, RA375 induced a dramatic increase in bioluminescence, consistent with stabilization of 4UbFL, in a dose dependent manner. At very high concentrations the luciferase activity dropped because of cellular toxicity.
Reporter assays: Sub-confluent cultures of cells were transfected with 4Ub-FL or FL plasmid using TransIT 2020 reagent (Minis Bio). […] Luciferase activity in cell lysate was determined with a luciferase assay kit (Promega) according to the manufacturer's instructions. Bioluminescence was measured by using a Glomax Multidetection system (Promega).

in vivo = format: in vivo, C57BL/6 mice; conditions: female, C57BL/6, mouse, in vivo; suggested from toxicities at higher dose; read-out: MTD in tumor-bearing animals
Protocol: To assess therapeutic efficacy the ID8-VegfDefb29 cell line was utilized in a syngeneic mouse model of ovarian cancer expressing luciferase (62). ID8 was first derived from spontaneous malignant transformation of C57BL/6 mouse ovarian surface epithelial cells in vitro (69). ID8-Vegf Defb29 cells represent a more aggressive variant of ovarian cancer in which VEGF provides vascular growth which is augmented by the presence of DEFB29 (62). C57BL/6 mice were injected i.p. with ID8-VegfDefb29 cells stably expressing firefly luciferase (0.5×10^6 cells) in PBS (100 μL). After 72 hrs, mice were imaged for their basal luminescence levels using an IVIS200 imager. Mice with visible luminescence were randomized into equal groups including vehicle (n=8), RA414 (3 mg/Kg, n=8), RA414 (10 mg/Kg, n=8) and treated every three days for up to 3 weeks. Mice were imaged every week to measure bioluminescence expressed by tumor after administration of luciferin. […] On day 24 two mice were sacrificed after collection of ascites, and the remainder required euthanasia on day 31 (FIGS. 17A and 17B). Administration of RA414 at 10 mg/kg (3 doses delivered every three days) regressed the tumor completely in 50% of the mice with less than 10% weight loss. […] This is consistent with proteasome inhibition within the ascites cells by the […] RA414 treatment regimen.
(§2) Tumor Studies: Female C57BL6 or Nude mice were inoculated with 10^6 ES2-Luciferase cells i.p. in 100 uL PBC, or ID8-VegfDefb29 syngeneic mouse model of ovarian cancer expressing luciferase (62) i.p. in 100 μL PBS. At day 3, mice were imaged for basal level luminescence activity with a Xenogen IVIS 200 after injection i.p. with luciferin (0.3 mg in 100 water). Mice were randomized into two groups (n=8) and treated i.p. with compounds or vehicle (25% (w/v) β-Hydroxypropylcyclodextrin in water), and imaged again on days 7 and 14. RA375 was administered i.p. at 10 mg/Kg.

[3] = PEG400: Cremophor: Tween40 vs b-HPCD
ES2-luc xenograft = experiment: ES2-luc intraperitoneal xenograft in nude mice; format: in vivo; conditions: 10 mg/Kg every 3 days, total 12 doses
Protocol: ES2 is a human cell line derived from a high grade ovarian clear cell carcinoma (42). The efficacy of RA375 against the ES2 xenograft model expressing luciferase (ES2-luc) was tested. Nude female mice were inoculated with ES2-luc cells into the peritoneal cavity. After 3 days the mice were imaged for their basal luminescence activity and randomized into two groups (n=8). […] Mice were imaged after the first and second week of treatment for their luciferase activity to assess tumor burden.
Briefly, female nude mice were injected interperitoneally (i.p.) with ES2-luc cells (1×10^6) in 100 μL PBS and the basal luminescence was measured after three days using IVIS 200 imaging after injecting luciferin. […] Over the treatment period mice were imaged every week for bioluminescence to monitor tumor growth.
as §2

ES2 cells = experiment: Seahorse mitochondrial stress test, ES2 cells; format: cell-based, human
Protocol: During the mitochondrial stress test, baseline OCR measurements were followed by the addition of the compound oligomycin to measure ATP-linked respiration. Upon addition of the uncoupler FCCP, maximal respiration is measured. […] At the end of the assay, a mix of rotenone and antimycin A was injected to provide a measure of non-mitochondrial respiration. […] To determine the impact of RA413S on glycolysis, ES2 cells were incubated in medium without glucose or pyruvate and the baseline ECAR was measured. Addition of glucose allows the measurement of the glycolysis rate. This was followed by the injection of oligomycin which inhibits mitochondrial ATP production and shifts the energy production to glycolysis. The consequent rise in ECAR measures the cellular maximum glycolytic capacity.
Seahorse Assay: For quantification of oxygen consumption rate, ES2 cells were seeded at 20,000 cells per well in Seahorse XF96 Analyzer plates in regular media and incubated at 37° C. with 5% CO2 overnight. […] The plate was then loaded into the Seahorse machine and readings of oxygen and pH levels were taken before and after injections of 3 μM oligomycin, 4 μM FCCP, 2 μM antimycin, and 2 μM rotenone. Oxygen consumption rate and extracellular acidification rate were analyzed using Wave 2.4 software.

SSC90 = conditions: human
HS578T = conditions: human
MCF7 = conditions: human
SKOV3 cells = experiment: XTT cytotoxicity assay, SKOV3; format: cell-based, human; conditions: Homo sapiens, SK-OV-3; Table 1; XTT assay; read-out: IC50 SKOV3
Text: as §1

C2KmFvB1 = experiment: MTT cytotoxicity assay, C2KmFvB1; conditions: read-out: cytotoxicity IC50 C2KmFvB1, Tables 3A/4B/4C, BRCA2 + Ve

Compound O=C(CCl)N[C@@H](Cc1ccccc1)C(=O)N1C/C(=C\c2ccc([N+](=O)[O-])cc2)C(=O)/C(=C/c2ccc([N+](=O)[O-])cc2)C1 [RA375] has a pIC50 (HeLa cells) of 7.89, a pIC50 (HT3) of 6.79 and a pIC50 (C33A) of 6.78. The pIC50 (JHU11) was 6.75, the “toxicity after repeated dosing” value ([1]; 40 mg/Kg on alternate days for two weeks) was “no observable toxicities or weight loss” and the “adverse effects after single dose” value ([1]; female Balb/c, single i.p. dose 5-100 mg/Kg, one week observation) was “No adverse effects were noted”. The “fold more potent than RA190 (4UbFL stabilization)” value [2] was 4 fold and the “fold more potent than bortezomib (4UbFL stabilization)” value [2] was 2 fold.
In the case of CC1/C(=C\c2ccc([N+](=O)[O-])cc2)C(=O)/C(=C/c2ccc([N+](=O)[O-])cc2)CN1C(=O)[C@H](Cc1ccccc1)NC(=O)CCl (some centres unmarked) [RA414], the MTD (in vivo) was 3 mg/kg and the “solubility in formulation vehicles” value [3] was “soluble in the PEG system only”.
For C[C@H]1/C(=C\c2ccc([N+](=O)[O-])cc2)C(=O)/C(=C/c2ccc([N+](=O)[O-])cc2)CN1C(=O)[C@@H](N)Cc1ccccc1, the survival (ES2-luc xenograft) was “significantly increased survival”, the “tumor burden (bioluminescence)” value (ES2-luc xenograft) was “significantly reduced tumor burden” and the “decrease of ATP production” value (ES2 cells; ES2, 12 hr, 100 nM) was ~4 fold. The maximal respiration (ES2 cells; ES2, relative to vehicle or RA414-treated groups) was “significantly reduced”, the pIC50 (SSC90) was 6.90 and the pIC50 (HS578T) was 7.40. For the same compound, the pIC50 (VU93) was 7.00 and the pIC50 (MCF7) was 6.60.
N[C@@H](Cc1ccccc1)C(=O)N1C/C(=C\c2ccc(Cl)c(Cl)c2)C(=O)/C(=C/c2ccc(Cl)c(Cl)c2)C1 [RA190, reference compound] showed a pIC50 (SKOV3 cells) of 7.12 and a pIC50 (C2KmFvB1) of 6.36.
